Molecules are shown by their SMILES. The source made the active and inactive calls. The calls are words filed in the database; no cut-off is given here.

In test [1] the target is T1, Alpha-2A adrenergic receptor (Homo sapiens, UniProt P08913).
T1 sequence (P08913 whole entry): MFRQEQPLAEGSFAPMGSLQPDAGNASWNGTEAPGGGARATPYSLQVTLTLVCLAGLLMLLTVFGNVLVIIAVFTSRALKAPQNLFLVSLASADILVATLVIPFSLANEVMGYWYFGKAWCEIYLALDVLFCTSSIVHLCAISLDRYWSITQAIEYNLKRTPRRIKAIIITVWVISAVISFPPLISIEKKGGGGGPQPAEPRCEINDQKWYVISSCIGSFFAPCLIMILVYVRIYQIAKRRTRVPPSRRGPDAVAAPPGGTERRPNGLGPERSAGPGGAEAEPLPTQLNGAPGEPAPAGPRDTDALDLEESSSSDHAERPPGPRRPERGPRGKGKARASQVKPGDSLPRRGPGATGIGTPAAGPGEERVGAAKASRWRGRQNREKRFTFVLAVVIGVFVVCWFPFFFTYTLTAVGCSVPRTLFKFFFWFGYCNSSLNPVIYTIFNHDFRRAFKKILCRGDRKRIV
In words: Displacement of [3H]RS-79948-197 from recombinant human alpha2A adrenoreceptor expressed in CHOK1 cell membrane by scintillation counting method. Type of test: cell membranes, CHO-K1. Particulars: read-out: Ki(app). Background: Displacement assays read how much labelled ligand stays bound in the presence of the test substance.

Test [2] deals with K562. In words: Antiproliferative activity against human K562 cells assessed as inhibition of cell survival after 48 hrs by MTT assay. Type of test: functional, cell-based. Particulars: K562, 48 h.
Test [3] has as its target T1, Alpha-2A adrenergic receptor. The test is described as follows: Intrinsic activity at recombinant human alpha2A adrenoreceptor expressed in CHOK1 cell membrane incubated for 30 mins by [35S]GTPgammaS binding assay relative to adrenaline. It is filed as cell membranes. The following applies: CHO-K1, human, 0.5 h; read-out: Intrinsic activity. For orientation: GTPγS resists hydrolysis and so accumulates on activated G proteins.

Test [4] deals with T2, Nischarin (Rattus norvegicus, UniProt Q4G017). The test is described as follows: Displacement of [125I]PIC from Imidazoline-1 receptor in rat PC12 cell membrane incubated for 30 mins by gamma counting method. It is filed as cell membranes, PC-12.
Test [5] is described as follows: Displacement of [3H]-clonidine from Imidazoline-1 receptor in bovine adrenal medullary plasma membrane incubated for 40 mins in presence of RX821002. Also noted: species or system Bos taurus.
A short description of test [6]: Displacement of [3H]-clonidine from Imidazoline-1 receptor in bovine chromaffin cell membranes incubated for 40 mins in presence of RX821002. Also noted: species or system Bos taurus.
The target in test [7] is T1, Alpha-2A adrenergic receptor.
Description: Agonist activity at recombinant human alpha2A adrenoreceptor expressed in CHOK1 cell membrane incubated for 30 mins by [35S]GTPgammaS binding assay
Test [8] deals with K562. In words: Potentiation of doxorubicin-induced apoptosis in human K562 cells assessed as early apoptotic cells at 50 uM after 48 hrs by Annexin V-FITC/propidium iodide staining based flow cytometry relative to control. It is filed as functional.
Test [9] relates to K562. The test is described as follows: Induction of apoptosis in human K562 cells assessed as early apoptotic cells at 50 uM after 48 hrs by Annexin V-FITC/propidium iodide staining based flow cytometry (reference value: 5%). Type of test: functional. A general note: In flow cytometry, cells or beads pass a laser one at a time.
The target in test [10] is T2, Nischarin. The test is described as follows: Displacement of [125I]PIC from Imidazoline-1 receptor in rat PC12 cell membrane by gamma counting method. It is filed as cell membranes, PC-12.
Test [11] deals with K562. The test is described as follows: Induction of apoptosis in human K562 cells assessed as necrotic cells at 1 uM after 48 hrs by Annexin V-FITC/propidium iodide staining based flow cytometry (reference value: 1%). Type of test: functional.
The subject of test [12] is K562. The test is described as follows: Induction of apoptosis in human K562 cells assessed as early apoptotic cells at 1 uM after 48 hrs by Annexin V-FITC/propidium iodide staining based flow cytometry relative to control. Type of test: functional.
Test [13] relates to K562. The test is described as follows: Cell cycle arrest in human K562 cells assessed as increase in G2/M cell population after 48 hrs by propidium iodide staining based flow cytometry. Type of test: functional.
Test [14] has as its system K562. The test is described as follows: Induction of apoptosis in human K562 cells assessed as early apoptotic cells at 1 uM after 48 hrs by Annexin V-FITC/propidium iodide staining based flow cytometry (reference value: 5%). Type of test: functional.
Test [15] relates to K562. In words: Induction of apoptosis in human K562 cells assessed as late apoptotic cells at 1 uM after 48 hrs by Annexin V-FITC/propidium iodide staining based flow cytometry (reference value: 1%). It is filed as functional.
The subject of test [16] is K562. In words: Induction of apoptosis in human K562 cells assessed as early apoptotic cells at 300 uM up to 48 hrs by Annexin V-FITC/propidium iodide staining based flow cytometry. It is filed as functional, cell-based.
Test [17] relates to K562. In words: Induction of apoptosis in human K562 cells assessed as early apoptotic cells at 300 uM after 24 hrs by Annexin V-FITC/propidium iodide staining based flow cytometry (reference value: 5%). Type of test: functional.
The subject of test [18] is K562. The test is described as follows: Induction of apoptosis in human K562 cells assessed as early apoptotic cells at 300 uM after 48 hrs by Annexin V-FITC/propidium iodide staining based flow cytometry (reference value: 5%). It is filed as functional.

T2 sequence (Q4G017 whole entry): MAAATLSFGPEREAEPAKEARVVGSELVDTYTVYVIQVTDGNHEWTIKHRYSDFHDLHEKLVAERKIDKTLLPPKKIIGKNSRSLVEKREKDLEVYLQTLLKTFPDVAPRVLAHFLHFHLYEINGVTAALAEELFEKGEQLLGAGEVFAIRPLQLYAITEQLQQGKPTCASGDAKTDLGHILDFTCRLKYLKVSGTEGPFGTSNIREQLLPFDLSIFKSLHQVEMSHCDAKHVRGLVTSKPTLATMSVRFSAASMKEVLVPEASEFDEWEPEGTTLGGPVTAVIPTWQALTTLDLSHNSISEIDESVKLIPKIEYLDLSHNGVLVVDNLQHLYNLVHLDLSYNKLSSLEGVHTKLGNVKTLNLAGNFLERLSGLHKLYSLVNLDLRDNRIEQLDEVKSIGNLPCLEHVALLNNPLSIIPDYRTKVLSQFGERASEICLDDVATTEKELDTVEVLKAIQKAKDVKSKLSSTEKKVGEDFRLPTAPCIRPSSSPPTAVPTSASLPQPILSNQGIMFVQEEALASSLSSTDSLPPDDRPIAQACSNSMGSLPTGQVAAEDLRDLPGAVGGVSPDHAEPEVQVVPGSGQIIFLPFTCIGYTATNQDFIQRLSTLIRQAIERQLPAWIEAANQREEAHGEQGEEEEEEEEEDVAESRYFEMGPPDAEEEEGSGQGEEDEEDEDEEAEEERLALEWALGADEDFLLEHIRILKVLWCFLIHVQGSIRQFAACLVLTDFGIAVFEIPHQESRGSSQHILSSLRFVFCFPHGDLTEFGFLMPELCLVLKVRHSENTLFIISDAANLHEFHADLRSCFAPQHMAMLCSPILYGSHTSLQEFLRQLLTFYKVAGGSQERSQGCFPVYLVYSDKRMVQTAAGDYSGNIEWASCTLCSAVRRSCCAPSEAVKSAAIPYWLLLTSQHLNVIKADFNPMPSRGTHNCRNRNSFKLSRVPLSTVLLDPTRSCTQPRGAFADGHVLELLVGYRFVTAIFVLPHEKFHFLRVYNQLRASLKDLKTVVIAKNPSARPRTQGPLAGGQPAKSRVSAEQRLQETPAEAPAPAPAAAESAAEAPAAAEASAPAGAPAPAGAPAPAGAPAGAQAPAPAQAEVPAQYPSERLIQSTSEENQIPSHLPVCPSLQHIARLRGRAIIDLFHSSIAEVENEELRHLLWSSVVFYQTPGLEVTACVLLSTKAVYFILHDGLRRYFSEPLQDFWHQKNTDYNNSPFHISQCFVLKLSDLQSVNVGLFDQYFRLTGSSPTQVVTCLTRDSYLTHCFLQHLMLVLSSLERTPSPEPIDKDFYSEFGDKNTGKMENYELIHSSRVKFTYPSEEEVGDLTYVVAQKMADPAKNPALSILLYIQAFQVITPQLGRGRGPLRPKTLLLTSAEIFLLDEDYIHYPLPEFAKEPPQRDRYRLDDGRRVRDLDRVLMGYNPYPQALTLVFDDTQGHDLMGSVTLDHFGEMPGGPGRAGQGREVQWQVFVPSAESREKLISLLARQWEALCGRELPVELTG

As a reminder, the IC50 is the concentration at which inhibition is half-maximal. In the case of `CCCCCNc1cc(C)n(Cc2ccccc2)c(=O)c1`, the Ki in [1] worked out at 110 µM. In addition, the IC50 in the test on K562 [2] was determined as 140 µM. The Emax in test [3] was -8%.

`Clc1cccc(Cl)c1N=C1NCCN1` [CLONIDINE]: on Nischarin [4], the Ki is 0.126 µM.

As to `CN1CCCCC1CCn1cnc2ccccc21` (stereo not drawn), the Ki in test [1] is 11 µM. Also, in the test with K562 [2], the half-inhibitory concentration (IC50) was above 300 µM. Also, the Emax in test [3] was -6%.

Broadly, the pKi is −log10 of the Ki, conventionally taken in molar units. `Cc1ccc(F)c(C2=NCCN2)c1`: the pKi in [5] is reported as 8.28.

As to `CCC(NC1=NCCC1)C1CC1` (stereo not drawn), the pKi in test [6] stood at 6.29.

Regarding `Clc1cccc2c1CN(NC1=NCCN1)C2`, the Ki on Nischarin [4] is 0.0282 µM.

As to `Cc1cc(NCc2ccccc2)cc(=O)n1CCC(C)C`, the Ki in [1] was found to be 27 µM. Further, the IC50 with K562 [2] was above 300 µM. Besides, the Emax in test [3] was -10%.

Consider `NC1=NCC(COc2ccccc2Br)O1` (stereo not drawn), for which the negative-log Ki (pKi) in test [5] is 8.19.

For the molecule `CCC1(c2cnc[nH]2)Cc2ccccc2C1` [ATIPAMEZOLE], the Ki in test [1] is 0.0012 µM.

Take `C1CCC2N=C(NC(C3CC3)C3CC3)CC2C1` (stereo not drawn): in test [6], the pKi is listed as 4.

As for `CC1CCC(NC(C2CC2)C2CC2)=N1` (stereo not drawn), the pKi in test [6] was 5.8.

The EC50 is the concentration at which the effect is half-maximal. In test [7], `C1COC(NC(C2CC2)C2CC2)=N1` [RILMENIDINE] gave a 50% effective concentration (EC50) of 0.178 µM. Moreover, the values for the Ki (on Nischarin [4]; in test [1]) were 0.0126 µM and 0.3 µM, respectively. The IC50 in the test on K562 [2] came to 65 µM. Besides, in test [3], the Emax turned out to be 54%. Moreover, the Activity in the test on K562 [8] is recorded as 44%; in the test on K562 [9], 20%.

As to `Cc1cc(NCCC(C)C)cc(=O)n1CCC(C)C`, in [1], the Ki came to 52 µM. In addition, the concentration for half-maximal inhibition (IC50) in the test with K562 [2] was determined as 128 µM. In addition, in [3], the Emax was -17%.

The molecule `Clc1cc(I)cc(Cl)c1N=C1NCCN1` [PI-CLONIDINE] gave a Ki at Nischarin [4] of 0.000794 µM.

Consider `Cc1cc(NCCC(C)C)cc(=O)n1Cc1ccccc1`, for which the Ki in test [1] amounted to 110 µM. Moreover, the IC50 with K562 [2] is above 300 µM. For the same molecule, in test [3], the Emax was -2%.

As for `CCCCCn1c(C)cc(NCc2ccccc2)cc1=O`, in [1], the Ki turned out to be 41 µM. Further, in the test on K562 [2], the IC50 was above 300 µM. Further, the Emax in [3] was -12%.

Regarding `c1ccc([C@H]2C[C@@H]2C2=NCCN2)cc1`, on Nischarin [10], the Ki was 0.347 µM.

For the molecule `CC1CCN=C1NC(C1CC1)C1CC1` (stereo not drawn), the pKi in test [6] is 4.

As to `COc1cccc2c1C(=O)c1c(O)c3c(c(O)c1C2=O)C[C@@](O)(C(=O)CO)C[C@@H]3O[C@H]1C[C@H](N)[C@H](O)[C@H](C)O1` [DOXORUBICIN], the Activity was determined as 0% in the test on K562 [11], 10% with K562 [12], 20% with K562 [14] and 0% with K562 [15]. In addition, the outcome in the test with K562 [13] was Active. Further, the IC50 with K562 [2] was 1 µM.

At Nischarin [4], `CC(Oc1c(Cl)cccc1Cl)C1=NCCN1` (stereo not drawn) [LOFEXIDINE] showed a Ki of 0.00562 µM.

In turn, `CC(CC1=NCCN1)c1ccccc1` (stereo not drawn) showed a Ki at Nischarin [10] of 7.24 µM.

Take `CCC1(C2=NCCN2)Cc2ccccc2O1` (stereo not drawn) [EFAROXAN]: the outcome with K562 [16] was inactive. For the same molecule, in the test on K562 [2], the IC50 is above 300 µM. Moreover, the Emax in [3] was -13%.

Take `Cc1cc(NCc2ccc(C(F)(F)F)cc2)cc(=O)n1CC(C)C`: the Ki in [1] is 58 µM. Also, in the test on K562 [2], the IC50 is 222 µM. Besides, the Emax in [3] was -6%.

As to `COc1nc(C)nc(Cl)c1NC1=NCCN1` [MOXONIDINE], the results for the Activity in the test on K562 [17] and in the test with K562 [18] were 2.31% and 2.68%, respectively.

For `CCCCCNc1cc(C)n(CCCCC)c(=O)c1`, in test [1], the Ki came to 62 µM. The half-inhibitory concentration (IC50) with K562 [2] worked out at 115 µM. Further, the Emax in test [3] was -18%.

For the molecule `N#CSc1ccc2oc(C3=NCCN3)cc2c1`, the pKi in test [6] turned out to be 5.6.

For `C(=C\c1ccccc1)/C1=NCCN1` [TRACIZOLINE], at Nischarin [10], the Ki is 0.0191 µM.

Regarding `CCCCCn1c(C)cc(NCc2ccc(Cl)cc2)cc1=O`, the Ki in test [1] came to 80 µM. The IC50 in the test with K562 [2] is above 300 µM. In addition, the Emax in [3] was 0%.

For the molecule `c1ccc2c(c1)OCC(C1=NCCN1)O2` (stereo not drawn) [IDAZOXAN], the Ki on Nischarin [10] is 1.26 µM.

As for `Cc1cccc([C@H](C)c2c[nH]cn2)c1C` [DEXMEDETOMIDINE], in test [3], the Emax was found to be 63%.

As to `COC1=CCCC=C1C1=NCCN1`, the negative-log Ki (pKi) in [5] was found to be 8.53.

Regarding `CCC1CCC(NC(C2CC2)C2CC2)=N1` (stereo not drawn), in test [6], the pKi came to 6.77.

For `CC1CCC(=Nc2ccc(I)cc2Cl)N1` (stereo not drawn), on Nischarin [4], the Ki is 0.000178 µM.

`Cc1cc(NCc2ccc(Cl)cc2)cc(=O)n1CCC(C)C`: in test [1], the Ki turned out to be 99 µM. Moreover, in the test with K562 [2], the IC50 turned out to be 224 µM. Further, the Emax in test [3] was -1%.

Source of the values: ChEMBL document CHEMBL3813687, “A combined ligand- and structure-based approach for the identification of rilmenidine-derived compounds which synergize the antitumor effects of doxorubicin” (Bioorg Med Chem, 2016).
